Test results from the CATMoS acute toxicity set (Mansouri et al. 2021).

Experiment: GHS categories as the set defines them, by LD50: 1 up to 5, 2 up to 50, 3 up to 300, 4 up to 2000, 5 above 2000 mg/kg
Conditions: rat; in vivo; po

Structure (SMILES)	GHS category
COCc1c(Cc2ccc(-c3ccccc3-c3nn[nH]n3)cc2)c(=O)nc2nc[nH]n12	4
CC(CCO)CC(C)(C)C (configuration not stated)	5
CCS(=O)c1c(C#N)nn(-c2c(Cl)cc(C(F)(F)F)cc2Cl)c1N (configuration not stated)	5
COc1ccc(C2COc3ccccc3O2)cc1O (configuration not stated)	5
CN1CCN(C2=NS(=O)(=O)c3cc(Cl)ccc3N2)CC1	5
COC(=O)[C@H]1[C@H]2C[C@@H]3c4[nH]c5cc(OC)ccc5c4CCN3C[C@H]2C[C@@H](OC(=O)/C=C/c2ccc(O)c(OC)c2)[C@@H]1OC	5
C=CC(=O)OCC1(CC)COCOC1	5
CCOC(=O)C(F)C(C)=O (configuration not stated)	3
CCN(C(=O)CCCSc1nnnn1C)c1ccccc1	4
C[Si](C)(C)[Si](C)(C)C	5
CC12CCCC(O)(C1)C1CC(C)(C)C1CC2 (configuration not stated)	5
CC1(C)O[C@@H]2C[C@H]3[C@@H]4C[C@H](F)C5=CC(=O)C=C[C@]5(C)[C@@]4(F)[C@@H](O)C[C@]3(C)[C@]2(C(=O)CO)O1	5
CCCCCCC(COC(=O)c1cccnc1)(COC(=O)c1cccnc1)COC(=O)c1cccnc1	5
CCCCCCOc1ccc(-c2ccc(C#N)cc2)cc1	5
C=CCCCCCCCCCO	5
O=C(c1ccccc1)C1(O)CCCCC1	5
CC1OC(OC2CCC(OC3C(O)CC(c4ccc5c(c4O)C(=O)C4=C(C5=O)C5(O)C(=O)CC(C)(OC6CCC(OC7C=CC(=O)C(C)O7)C(C)O6)CC5(O)C=C4)OC3C)OC2C)C=CC1=O (configuration not stated)	4
NS(=O)(=O)c1cc2c(cc1Cl)N=C(CSCc1ccccc1)NS2(=O)=O	5
c1ccc2oc(-c3ccc(-c4nc5ccccc5o4)s3)nc2c1	5
N[C@@H](CC(=O)N1CCn2c(nnc2C(F)(F)F)C1)Cc1cc(F)c(F)cc1F	5
CC(C)=CCC(C#N)(CCN1CCCC1)c1cccc2ccccc12 (configuration not stated)	4
c1ccc(CN(Cc2ccccc2)Sc2nc3ccccc3s2)cc1	5

Structure (SMILES)	GHS category
CCC(C#N)(CCN(CC=C(C)C)CC=C(C)C)c1cccc2ccccc12 (configuration not stated)	4
c1coc(CNc2[nH]cnc3ncnc2-3)c1	5
CCCCOC(=O)C1(O)c2ccccc2-c2ccccc21	5
CCCCCCOc1ccccc1C(N)=O	5
CC(=O)CCCC(C)CCC=C(C)C (configuration not stated)	5
CCOc1c(N)c2c(c(OCC)c1OCC)C(C1c3c(cc4c(c3OC)OCO4)CCN1C)OC2=O (configuration not stated)	5
O=C(O)C(=O)[C@@H](O)[C@H](O)[C@H](O)CO	5
CN1C(=O)COc2cc(C(=O)C=Cc3ccc(Cl)cc3)ccc21	5
CC(=O)C1(c2ccccc2)CCN(CCCOc2ccc3c(c2)NC(=O)CC3)CC1	4
O=C(O)CCCCCCCCCCNS(=O)(=O)c1ccc(Cl)cc1C(=O)c1ccccc1	4
NC(=O)CC1(CC(=O)O)CCCCC1	5
CC(=O)OC1C=C(C)C2CC(=C(C)C)CC2C(C)C1 (configuration not stated)	5
CC1COC(Cn2cncn2)(c2cc3ccccc3o2)O1 (configuration not stated)	4
CN[C@H](CC(C)C)C(=O)N[C@H]1C(=O)N[C@@H](CC(N)=O)C(=O)N[C@H]2C(=O)N[C@H]3C(=O)N[C@H](C(=O)N[C@@H](C(=O)O)c4cc(O)cc(O)c4-c4cc3ccc4O)[C@H](O)c3ccc(c(Cl)c3)Oc3cc2cc(c3O[C@@H]2O[C@H](CO)[C@@H](O)[C@H](O)[C@H]2O[C@H]2C[C@](C)(N)C(O)[C@H](C)O2)Oc2ccc(cc2Cl)[C@H]1O (some centres not stated)	5
O=C1c2c(Br)c(Br)c(Br)c(Br)c2C(=O)N1CCN1C(=O)c2c(Br)c(Br)c(Br)c(Br)c2C1=O	5
CC(C)C(N)C(=O)OCc1ccccc1 (configuration not stated)	5
CCOc1ccc(NC(=O)c2cc3ccccc3cc2O)cc1	5
CCCCCCCCCCCCOCCOCCOCCOCCOCCOCCOCCOCCOCCOCCOCCOCCOCCOCCOCCOCCOCCOCCOCCOCCOCCOCCOCCO	5
C#CCNC(=O)Oc1cccc2c1OC(C)(C)O2	3
CCCCCCCCC=COCC	5
O=[N+]([O-])c1ccc2c(c1)COP(=S)(NC1CCCCC1)O2 (configuration not stated)	3
NC(=O)O	4

Structure (SMILES)	GHS category
Cc1ccnc(N)c1	4
O=C1CCc2c(OCC(O)CN3CCC(Cc4ccccc4)CC3)ccc(Br)c2N1 (configuration not stated)	4
O=S(=O)([O-])CCC[n+]1ccccc1	5
C[C@]12CC[C@H](O)CC1=CC[C@@H]1[C@@H]2CC[C@]2(C)C(=O)CC[C@@H]12	5
CC(C)COC(=O)Cc1ccccc1	5
CC(C)Oc1cccc(NC(=O)c2ccccc2C(F)(F)F)c1	5
O=c1nc2nc[nH]n2c(COCc2ccccc2)c1Cc1ccc(-c2ccccc2-c2nn[nH]n2)cc1	4
COc1cc(C(=O)OCCCNCCC(c2ccccc2)c2ccccc2)cc(OC)c1OC	5
CC(C)CC(=O)OCc1ccccc1	5
CC1OC(OC2C(OC(=O)C=Cc3ccc(O)c(O)c3)C(CO)OC3OCC(c4ccc(O)c(O)c4)OC32)C(O)C(O)C1O (configuration not stated)	5
CC(CC(=O)OCCN1C(C)(C)CC(OC(=O)CC(C)CC(C)(C)C)CC1(C)C)CC(C)(C)C (configuration not stated)	5
CCCCNc1cc(C(=O)O)cc(S(N)(=O)=O)c1Oc1ccccc1	5
COc1cc(C(=O)OCCOCCN2CCN(C(c3ccccc3)c3ccc(Cl)cc3)CC2)cc(OC)c1OC (configuration not stated)	5
COc1ccc2cc3[n+](cc2c1OC)CCc1cc2c(cc1-3)OCO2	5
CC(C)=CCN(CC=C(C)C)CCC(C#N)(CCN(CC=C(C)C)CC=C(C)C)c1cccc2ccccc12	4
CCCC(=O)N(C)C(=O)Oc1cccc2c1OC(C)(C)O2	4
CC1CC(OC(=O)COc2ccc(F)cc2)CC(C)(C)C1 (configuration not stated)	5
CN1C(=O)CCc2c(OCCCN3CCC(Cc4ccccc4)CC3)cccc21	4
Cc1cc(C)c(C2=C(OC(=O)CC(C)(C)C)C3(CCCC3)OC2=O)c(C)c1	5
COC(=O)c1cc(F)ccc1[N+](=O)[O-]	5
CCCCCCCCCCCCCCCCCCOC(=O)CCc1cc(C(C)(C)C)c(O)c(C(C)(C)C)c1	5
c1cnn(-c2cc(-n3cccn3)ncn2)c1	5

Structure (SMILES)	GHS category
CCCCCCOC(=O)CC(C)C	5
CC(C)(C)c1cc(CCC(=O)OCC(COC(=O)CCc2cc(C(C)(C)C)c(O)c(C(C)(C)C)c2)(COC(=O)CCc2cc(C(C)(C)C)c(O)c(C(C)(C)C)c2)COC(=O)CCc2cc(C(C)(C)C)c(O)c(C(C)(C)C)c2)cc(C(C)(C)C)c1O	5
CC(CO)COC1CC2CCC1(C)C2(C)C (configuration not stated)	5
CC(=O)OC1C=CC(C)=CCC(O)C=CC(C)=CC(NC(=O)C(C)=O)C2(C)C(=O)OC(C1)C(C)C2=O (configuration not stated)	5
c1cc2c(c(OCCN3CCCCC3)c1)OCCO2	5
O=S(=O)(O)c1cc(O)c2c(N=Nc3ccc(Nc4ccccc4)c4c(S(=O)(=O)O)cccc34)cc(S(=O)(=O)O)cc2c1	5
COc1nc(C)nc(NC(=O)NS(=O)(=O)c2ccccc2OCCCl)n1	5
CCOC(=O)CSc1nc(C(C)(C)C)nn1C(=O)N(C)C	3
COC(=O)c1ccc(OC)cc1	5
CC(C)NC(=O)N1CCc2nc(N=C(N)N)sc2C1	4
OCCN1CNC(=S)NC1	5
O=S(=O)(O)c1cc(Nc2nc(Cl)nc(N(CCO)CCO)n2)ccc1C=Cc1ccc(Nc2nc(Cl)nc(N(CCO)CCO)n2)cc1S(=O)(=O)O	5
COCCOCOCCOC	5
CSC(=O)c1cccc2nnsc12	5
O=C1c2ccccc2C(=O)N1CC1=Nc2ccccc2Cc2ccccc21	5
CC/C(=C(/CC)c1ccc(O)cc1)c1ccc(O)cc1	5
CC[C@H]1OC(=O)C[C@@H](O)[C@H](C)[C@@H](O[C@@H]2O[C@H](C)[C@@H](O[C@H]3C[C@@](C)(O)[C@@H](O)[C@H](C)O3)[C@H](N(C)C)[C@H]2O)[C@@H](CC=O)C[C@@H](C)C(=O)C=CC(C)=C[C@@H]1CO[C@@H]1O[C@H](C)[C@@H](O)[C@@H](OC)[C@H]1OC	5
CC(C)=CCN(CC=C(C)C)CCC(C#N)(c1cccc2ccccc12)C(C)C (configuration not stated)	4
O=C(NCc1ncc(C(F)(F)F)cc1Cl)c1c(Cl)cccc1Cl	5
CC1NC(=S)C(C(O)O)C(O)C1C (configuration not stated)	5
C=C(C)C(=O)OCCOC(=O)NCCC(C)CC(C)(C)CNC(=O)OCCOC(=O)C(=C)C (configuration not stated)	5
CO[Si](CC(C)C)(OC)OC	5

Structure (SMILES)	GHS category
CCCc1c(Cc2ccc(-c3ccccc3-c3nn[nH]n3)cc2)c(=O)nc2nc(N(CC)CC)[nH]n12	4
CC(=O)NC(C(=O)O)C(C)(C)S (configuration not stated)	4
CNC(=O)/C(=N/OC)c1ccccc1COc1cc(C)ccc1C	5
Cc1c(S(C)(=O)=O)ccc(C(=O)O)c1Cl	5
CC(C)OC(=O)CCCCCCCCC(=O)OC(C)C	5
CCCCCCCCCCCCCCCCCCOP(=O)(O)O	5
CCCCCC1C(=O)CCC1CC(=O)OC (configuration not stated)	5
CN(C/C=C/C#CC(C)(C)C)Cc1cccc2ccccc12	5
CC(=O)O[C@@]12CCC[C@@](C)(CC[C@@H]3[C@@H]1CC3(C)C)C2	5
Cc1ccc(OC(=O)c2ccccc2OC(N)=O)cc1	5
CN(C(=O)COc1nc2ccccc2s1)c1ccccc1	5
CC1CCC(C(C)C)C(OCC(O)CO)C1 (configuration not stated)	5
CSCC[C@H](NC(=O)CCSC(=O)c1ccccc1)C(=O)OC(C)C	5
CC(C)=CCC(C#N)(CCN(C)C)c1cccc2ccccc12 (configuration not stated)	4
CC/C=C\CCOC(=O)Cc1ccccc1	5
CC1CC(OC(=O)COc2ccc(I)cc2)CC(C)(C)C1 (configuration not stated)	5
CN1C(=O)CCc2c(OCC(O)CN3CCC(Cc4ccccc4)CC3)cccc21 (configuration not stated)	4
Cc1cccc2ncc(C(=O)NC34CC5CC(CC(C5)C3)C4)c(=O)n12	3
O=c1[nH]c(=O)n([C@H]2C[C@H](O)[C@@H](CO)O2)cc1C(F)(F)F	5
